Results on eight compounds are retold here after PMC8537327, “EGFR-Targeted Pentacyclic Triterpene Analogues for Glioma Therapy” (International Journal of Molecular Sciences, 2021).

Data set [1] relates to Jurkat human leukemic T-cells. Kind of data set: MTT cytotoxicity assay, Jurkat cells. In kind it is cell-based. The protocol:
(§1) U251, T98G (Japanese Collection of Research Bioresources Cell Bank), and U87 human glioblastoma cell lines were incubated in Dulbecco’s Modified Eagle Medium (DMEM)/Ham’s F12 (Wako Pure Chemical Industries, Osaka, Japan), Eagle’s Minimum Essential Medium (EMEM; Wako Pure Chemical Industries, Osaka, Japan), and DMEM (Gibco/Thermo Fisher Scientific, Waltham, MA, USA) respectively, and supplemented with 10% fetal bovine serum (FBS; Sigma Aldrich, MO, USA). Jurkat human leukemic T-cell line was cultured in Roswell Park Memorial Institute (RPMI) 1640 (Wako Pure Chemical Industries, Osaka, Japan), supplemented with 10% FBS. PBMCs (Precision Bioservices, Frederick, MD, USA) were incubated in RPMI 1640 and supplemented with 10% human serum AB (HS) (Gemini, Woodland, CA, USA). All media were supplemented with 89 μg/mL streptomycin (Meiji Seika Pharma, Tokyo, Japan) at 37 °C in a humid atmosphere and 5% CO2. For each experiment, growing cells were plated at 4 × 10^4 cells/mL and 6 × 10^5 cells/mL into 24-well and 96-well microtiter tissue culture plates (Iwaki brand Asahi Glass Co., Chiba, Japan) respectively and incubated for 72 h before the addition of the drugs (the optimal cell number for cytotoxicity assays was determined in preliminary experiments). The stock solutions of the compounds and cisplatin (Sigma-Aldrich, St. Louis, MO, USA) in concentrations between 0.1–10 mM were prepared in dimethyl sulfoxide (DMSO; Wako Pure Chemical Industries, Osaka, Japan) and in H2O respectively, then were added to fresh culture medium. The concentration of DMSO and H2O in the final culture medium was 1% which had no effect on the cell viability.
(§2) The MTT (Dojindo Molecular Technologies, Kumamoto, Japan) assay was carried out using the U251, T98G, U87, Jurkat, and PBMC cells to determine the cytotoxicity of compounds 1–13 and cisplatin as previously described in the literature with small modifications. Treated cells were incubated with different concentrations (1–100 µM) of the compounds for 72 h at 37 °C in the CO2 incubator. About 100 µL (1.1 mg/mL) of MTT solution was added to each well and after further incubation for 4 h, formazan crystals formed. At the end of this period, the medium was removed and the formazan crystals were solubilized by the addition of 100 μL DMSO to each well. The absorbance was read on an Infinite M1000 plate reader (Tecan, Mannedorf, Switzerland) at a wavelength of 550 nm with background subtraction at 630 nm. All experiments were performed in triplicate and IC50 values were defined as the drug concentrations that reduced absorbance to 50% of control values.

Data set [2] deals with U251 human glioblastoma cells. As to the kind of experiment: MTT cytotoxicity assay, U251 cells. In kind it is cell-based. The note with it: for IC50: Homo sapiens, U-251, MTT, 72 h; for anticancer activity against U251 cells: at 100 µM concentration. The protocol:
as §1, §2

Data set [3] concerns human peripheral blood mononuclear cells (PBMCs). Kind of data set: MTT cytotoxicity assay, PBMCs. In kind it is cell-based. To be noted: Homo sapiens, PBMC, 72 h. The protocol:
as §1, §2

The subject of data set [4] is U87 human glioblastoma cells. As to the kind of experiment: MTT cytotoxicity assay, U87 cells. In kind it is cell-based. To be noted: for IC50: Homo sapiens, U-87 MG, MTT, 72 h; for anticancer activity against U87 cells: at 100 µM concentration. As for the experimental part: as §1, §2
Background: Tetrazolium dyes change colour on reduction, which living cells bring about.

Data set [5] deals with T98G human glioblastoma cells. As to the kind of experiment: MTT cytotoxicity assay, T98G cells. In kind it is cell-based. To be noted: for IC50: Homo sapiens, T98G, MTT, 72 h; for anticancer activity against T98G cells: at 100 µM concentration. As for the experimental part: as §1, §2

Broadly, the IC50 is the concentration needed to halve the response being measured. In the case of `CC1(C)CC[C@]2(C(=O)OCc3ccccc3)CC[C@]3(C)C(=CC[C@@H]4[C@@]5(C)CC[C@H](O)[C@@](C)(CO)[C@@H]5CC[C@]43C)[C@@H]2C1` [Compound 4], the IC50 is 9.97 ± 3.24 µM in data set [1] (Homo sapiens, Jurkat, MTT, 72 h); 8.06 ± 2.04 µM in data set [2]; 21.9 ± 5.13 µM in data set [3]; 19.5 ± 4.52 µM in data set [4]; 9.86 ± 2.21 µM in data set [5]. Moreover, the “SI (selectivity index)” value in data set [1] (SI = IC50 for PBMCs/IC50 for Jurkat cells) is 2.20.
In the case of `C=C(C)[C@@H]1CC[C@]2(C(=O)OCc3ccccc3)CC[C@]3(C)[C@H](CC[C@@H]4[C@@]5(C)CC[C@H](O)C(C)(C)[C@@H]5CC[C@]43C)[C@@H]12` [Compound 2], the IC50 is 24 ± 4.98 µM in data set [2], > 100 µM in data set [4] and > 100 µM in data set [5].
With `CC1(C)CC[C@]2(C(=O)OCc3ccccc3)CC[C@]3(C)C(=CC[C@@H]4[C@@]5(C)CC[C@H](O)[C@@](C)(C=O)[C@@H]5CC[C@]43C)[C@@H]2C1` [Compound 7], the IC50 in data set [2] is 18 ± 2.23 µM; in data set [4] it was 60.9 ± 8.87 µM; in data set [5] it was 61.1 ± 5.13 µM.
Usually melting point stands for the temperature, or range, at which the solid turns liquid. For the compound `CC1(C)CCC2(C(=O)O)CCC3(C)C(=CCC4C5(C)CCC(O)C(C)(CNCc6ccccc6)C5CCC43C)C2C1` (centres unmarked) [Compound 11, 9-((Benzylamino)methyl)-10-hydroxy-2,2,6a,6b,9,12a-hexamethyl-1,2,3,4,4a,5,6,6a,6b,7,8,8a,9,10,11,12,12a,12b,13,14b-icosahydropicene-4a-carboxylic acid], the melting point was in the range of 246 to 249 °C. In data set [2], the IC50 is > 100 µM and the “anticancer activity against U251 cells” value is on record as “no significant anticancer activity”. In data set [4], the half-maximal inhibitory concentration (IC50) was > 100 µM and the “anticancer activity against U87 cells” value is “no significant anticancer activity”. Moreover, in data set [5], the IC50 was > 100 µM and the “anticancer activity against T98G cells” value is given as “no significant anticancer activity”.
For `C[C@H]1[C@H](C)CC[C@]2(C(=O)OCc3ccccc3)CC[C@]3(C)C(=CC[C@@H]4[C@@]5(C)C[C@@H](O)[C@H](O)[C@@](C)(CO)[C@@H]5CC[C@]43C)[C@H]12` [Compound 1], the IC50 in data set [2] came out at 13.2 ± 3.19 µM; in data set [4], 22.6 ± 6.75 µM; in data set [5] it was 20.5 ± 4.34 µM.
`C[C@H](NCC1(C)C(O)CCC2(C)C1CCC1(C)C2CC=C2C3CC(C)(C)CCC3(C(=O)O)CCC21C)c1ccccc1` (stereo partly drawn) [Compound 12, 10-Hydroxy-2,2,6a,6b,9,12a-hexamethyl-9-[(((S)-1-phenylethyl)amino)methyl]-1,2,3,4,4a,5,6,6a,6b,7,8,8a,9,10,11,12,12a,12b,13,14b-icosahydropicene-4a-carboxylic acid] displayed a melting point of 240 to 243 °C. Moreover, in data set [2], the IC50 was > 100 µM and the “anticancer activity against U251 cells” value was “no significant anticancer activity”. Besides, in data set [4], the IC50 is > 100 µM and the “anticancer activity against U87 cells” value is given as “no significant anticancer activity”. Besides, in data set [5], the IC50 was > 100 µM and the “anticancer activity against T98G cells” value was “no significant anticancer activity”.
On to `C[C@H]1[C@H](C)CC[C@]2(C(=O)OCc3ccccc3)CC[C@]3(C)C(=CC[C@@H]4[C@@]5(C)CC[C@H](O)C(C)(C)[C@@H]5CC[C@]43C)[C@H]12` [Compound 6], for which the IC50 in data set [2] came out at 16.7 ± 3.17 µM; in data set [4], 79.7 ± 10.1 µM; in data set [5], 64.1 ± 7.36 µM.
Consider `CC1(C)[C@@H](O)CC[C@]2(C)[C@H]3C(=O)C=C4[C@@H]5C[C@@](C)(C(=O)OCc6ccccc6)CC[C@]5(C)CC[C@@]4(C)[C@]3(C)CC[C@@H]12` [Compound 3], for which, in data set [2], the IC50 is > 100 µM and the “anticancer activity against U251 cells” value is “no significant anticancer activity”. Further, in data set [4], the IC50 was > 100 µM and the “anticancer activity against U87 cells” value is on record as “no significant anticancer activity”. Further, in data set [5], the IC50 was > 100 µM and the “anticancer activity against T98G cells” value is recorded as “no significant anticancer activity”.
